These results are taken from patent US20040202713A1, “Means and method for hormonal contraception” (priority 2001, published 2004).

Series [1] deals with women. Description: Clinical study in contraception, combined ethinyl estradiol/dydrogesterone regimen (Example 2). It counts as in vivo, human. Conditions: 30 μg ethinyl estradiol + 20 mg dydrogesterone daily for 24 days, then 4 days placebo; 8 women. The protocol:
A clinical study in contraception is conducted in 8 women, who were selected on the basis of the criteria mentioned in Example 1, using 30 μg ethinyl estradiol and 20 mg dydrogesterone. The aforementioned dose is administered on a daily basis during 24 days, followed by a hormone-free period placebo's) of 4 days.

The subject of another series is young healthy women. The series is described as follows: Clinical study in contraception, sequential regimen (Example 1): vaginal ultrasonography, endogenous hormones, bleeding pattern. It counts as in vivo, human. Conditions: 2 mg 17beta-estradiol days 1-14, then 10 mg dydrogesterone + 2 mg 17beta-estradiol days 15-28, single cycle. From the text: Women who participated ill the study described in this example were all selected on the basis that they were users of ‘high’ dose monophasic ethinyl estradiol-containing combined oral contraceptives. The reasons for applying this selection criterion was that there is a dose relationship between follicular development and ethinyl estradiol whether given alone or in combination with a progestogen, i.e. less follicular development in the presence of the higher dose. Participation of the females involved in the study started at a moment of (almost) complete suppression of follicular development. This condition is not met if a person has their first day of bleeding in a natural cycle, after a tablet-free interval, or immediately after a low-dose combined oral contraceptive. A clinical study in contraception was conducted in 9 young healthy women who previously used a monophasic oral contraceptive pill with at least 30 microgram of ethinyl estradiol. The women were administered 2 mg 17beta-estradiol during days 1-14 of the cycle. From days. 15 to 28 of the cycle 10 mg dydrogesterone combined with 2 mg 17beta-estradiol was administered. The participants were followed by vaginal ultrasonography and blood sampling for endogenous hormones to assess ovarian function (ovulation-inhibition). Vaginal bleeding pattern and feeling of well being were scored by the participants.

For series [2] the following is noted: hormone replacement therapy with 17beta-estradiol dydrogesterone (Grisar et al. 1999); cited from earlier work.
The subject of another series is humans. Conditions: reported by Claassen et al., Acta Endocrinologica (1967); cited from earlier work.
For series [3] the following is noted: compared with commercially used synthetic progestogens; cited from earlier work.
In series [4] the test system is women. Description: Clinical study with dydrogesterone as progestogen-only preparation (Example 3). It counts as in vivo, human. Conditions: 20 mg dydrogesterone once a day, uninterrupted for 4 months, 8 women. The protocol:
A clinical study with dydrogesterone as a progestogen-only preparation is conducted in 8 women who were selected on the basis of the criteria mentioned in Example 1. The 8 women receive a 20 mg dosage of dydrogesterone once a day, uninterruptedly during a period of 4 months.

For `CC(=O)[C@H]1CC[C@H]2[C@@H]3C=CC4=CC(=O)CC[C@@]4(C)[C@@H]3CC[C@]12C` [dydrogesterone, 9β,10α-pregna-4,6-diene-3,20-dione], in the series on women [1], the Ovulation inhibition result is given as “ovulation inhibition is achieved” and the Withdrawal bleeding entry is listed as “Regular withdrawal bleeding occurs in all women”. Further, the “Ovulation inhibition (subjects with inhibition)” value in the series with young healthy women (9 women) was 7 of the 9. Moreover, in the series on young healthy women (scored by participants), the Intermenstrual bleeding entry is listed as “No intermenstrual bleeding was observed”. Besides, the “Adverse effects on blood pressure” value in series [2] is recorded as “no adverse effects on blood pressure”. The “Ovulation inhibition in humans” value in the series with humans is “does not inhibit ovulation in humans”. Besides, the “Estrogenic, glucocorticoid, anabolic or androgenic properties” value in series [3] is “does not exhibit estrogenic, glucocorticoid, anabolic or androgenic properties”. In addition, in the series on women [4], the Irregular bleeding entry is reported as “some unpredictable irregular bleeding”, the Menstrual flow result is listed as “reduction of the usual menstrual flow” and the Ovulation inhibition entry was “Ovulation is inhibited”.
